Experimental findings from US7880021B2, “Compounds and kits for the detection and the quantification of cell apoptosis” (Centre National de la Recherche Scientifique (CNRS), priority 2005, dated 2011) are described below.

Data set [1] has as its system human lymphoid cell line CEM T. Briefly: Toxicity test by flow cytometry using PI. Particulars: 1 μM F2N12S; 0.5, 1 and 4 hours incubation. It counts as cell-based. The protocol:
The toxicity of the F2N12S molecules was tested by flow cytometry using PI (19 μM). Cells were washed twice as described above and separated in nine batches: three batches for control measurements, three batches with 10^-7 M F2N12S and three batches with 10^-6 M F2N12S. The batches were incubated for 0.5 hour, 1 hour and 4 hours, respectively. The 488 nm line of an argon laser was used as the excitation light source. Emission was collected by using the 630FD22 filter.
Next, the cytotoxicity of the newly synthesized probe, F2N12S, was evaluated on the human lymphoid cell line CEM T. F2N12S was added at 0.1 μM (working concentration) and 1 μM and, incubated for different times (0.5, 1 and 4 hours).
(In flow cytometry, cells or beads pass a laser one at a time.)

The test system of data set [2] is HeLa cells. Briefly: Flow cytometry F2N12S intensity ratio in HeLa cells. The class given is cell-based. Particulars: data not shown. The source says:
The probe of the invention F2N12S has been combined with PI and the fluorescence intensities of PI have been represented as a function of the T*/N* ratio of F2N12S (FIG. 6c). In this case, the populations of apoptotic and dead cells are clearly discriminated by using the differences in the PI intensities. […] This conclusion was further strengthened when the populations discriminated by the F2N12S/PI couple were colored according to their response with the annexin V-FITC/PI couple (FIG. 6d).

“1-dodecanaminium, N-[[2-[4-Diethylaminophenyl]-3-hydroxychromon-6-yl]-methyl]-N-methyl-N-(3-sulfopropyl)-, inner salt [F2N12S]”: the “percentage of dead cells” value in data set [1] is on record as ≤ 4%. Further, in data set [2], the “F2N12S intensity ratio values compared with T lymphoblastoid cells” value is reported as “very similar”.
